According to ChEMBL document CHEMBL5316367, “Mass Spectrometry-Guided Discovery of Multi-N-Methylated Cyclodecapeptides Auyuittuqamides E-H from Sesquicillium sp. QL0466” (2023):
Converted amounts (≈) assume the structure as drawn. Each block holds one compound with its values, some of them ahead of it.

Key:
Assay type in all cases: functional
[1] = test system: Staphylococcus aureus; assay: Antimicrobial activity against Staphylococcus aureus ATCC 6538 assessed as inhibition of bacterial growth by microtiter plate reader assay
[2] = test system: Staphylococcus aureus; assay: Antimicrobial activity against methicillin-resistant Staphylococcus aureus 11646 assessed as inhibition of bacterial growth by microtiter plate reader assay
[3] = test system: Enterococcus faecium; assay: Antimicrobial activity against vancomycin-sensitive Enterococcus faecium 160119481 assessed as inhibition of bacterial growth by microtiter plate reader assay
[4] = test system: Enterococcus faecium; assay: Antimicrobial activity against vancomycin-resistant Enterococcus faecium 151458137 assessed as inhibition of bacterial growth by microtiter plate reader assay
[5] = test system: Escherichia coli; assay: Antimicrobial activity against Escherichia coli ATCC 25922 assessed as inhibition of bacterial growth by microtiter plate reader assay

Structure (SMILES): CC[C@H](C)[C@@H]1NC(=O)CNC(=O)[C@H](CC(C)C)N(C)C(=O)[C@H]([C@@H](C)CC)NC(=O)[C@H]([C@@H](C)O)N(C)C(=O)[C@H](Cc2ccccc2)NC(=O)CNC(=O)[C@@H](CC(C)C)N(C)C(=O)[C@H](CC(C)C)NC(=O)[C@H](CO)NC1=O
MIC [1]: 8 µg/mL (≈ 7.57 µM)
MIC [2]: > 128 µg/mL
MIC [3]: 8 µg/mL (≈ 7.57 µM)
MIC [4]: 8 µg/mL (≈ 7.57 µM)
MIC [5]: > 128 µg/mL

Structure (SMILES): CC[C@H](C)[C@@H]1NC(=O)CNC(=O)[C@H](CC(C)C)N(C)C(=O)[C@H]([C@@H](C)CC)NC(=O)[C@H]([C@@H](C)O)N(C)C(=O)[C@H](Cc2ccccc2)NC(=O)CNC(=O)[C@@H](CC(C)C)N(C)C(=O)[C@H]([C@@H](C)CC)NC(=O)[C@H](CO)NC1=O
MIC [1]: 8 µg/mL (≈ 7.57 µM)
MIC [2]: > 128 µg/mL
MIC [3]: 8 µg/mL (≈ 7.57 µM)
MIC [4]: 8 µg/mL (≈ 7.57 µM)
MIC [5]: > 128 µg/mL

Structure (SMILES): CC[C@H](C)[C@@H]1NC(=O)[C@H](CO)NC(=O)[C@H](CC(C)C)NC(=O)CNC(=O)[C@H](CC(C)C)N(C)C(=O)[C@H]([C@@H](C)CC)NC(=O)[C@H]([C@@H](C)O)N(C)C(=O)[C@H](Cc2ccccc2)NC(=O)CNC(=O)[C@@H](CC(C)C)N(C)C1=O
MIC [1]: 8 µg/mL (≈ 7.57 µM)
MIC [2]: > 128 µg/mL
MIC [3]: 8 µg/mL (≈ 7.57 µM)
MIC [4]: 8 µg/mL (≈ 7.57 µM)
MIC [5]: > 128 µg/mL

MIC [5]: 32 µg/mL (≈ 66.2 µM)
Structure (SMILES): NC[C@H]1O[C@H](O[C@H]2[C@H](O)[C@@H](O[C@H]3O[C@H](CO)[C@@H](O)[C@H](N)[C@H]3O)[C@H](N)C[C@@H]2N)[C@H](N)[C@@H](O)[C@@H]1O [BEKANAMYCIN]

Structure (SMILES): CC[C@H](C)[C@@H]1NC(=O)[C@H]([C@@H](C)O)N(C)C(=O)[C@H](Cc2ccccc2)NC(=O)CNC(=O)[C@@H](CC(C)C)N(C)C(=O)[C@H](CC(C)C)NC(=O)[C@H](CO)NC(=O)[C@H](CC(C)C)NC(=O)CNC(=O)[C@H](CC(C)C)N(C)C1=O
MIC [1]: 8 µg/mL (≈ 7.57 µM)
MIC [2]: > 128 µg/mL
MIC [3]: 8 µg/mL (≈ 7.57 µM)
MIC [4]: 8 µg/mL (≈ 7.57 µM)
MIC [5]: > 128 µg/mL
